Assay results as given in ChEMBL document CHEMBL6109038, “Discovery of potent dihydro-oxazinoquinolinone inhibitors of GuaB for the treatment of tuberculosis” (Bioorg Med Chem Lett, 2025).
Values after ≈ are worked out from the molar mass of the structure shown.

How the values were obtained:
[1] = system: Mycobacterium tuberculosis; assay: Antitubercular activity against Mycobacterium tuberculosis H37RvMA assessed as inhibition of bacterial growth by Alamar blue dye based broth microdilution method; assay type: functional
[2] = system: Mycobacterium tuberculosis; assay: Antitubercular activity against Mycobacterium tuberculosis ATCC 27294 assessed as inhibition of bacterial growth measured after 1 week by broth microdilution method; assay type: functional; details: ATCC 27294, 168 h, time 1 weeks
[3] = system: Mycobacterium tuberculosis; assay: Antitubercular activity against Mycobacterium tuberculosis H37Ra assessed as inhibition of bacterial growth; assay type: functional
[4] = Lipophilicity, logD of the compound measured at pH 7.4; assay type: physicochemical; details: buffer
[5] = Clearance in human liver microsomes; assay type: ADME, Microsome
[6] = system: Mycobacterium tuberculosis; assay: Antitubercular activity against Mycobacterium tuberculosis assessed as inhibition of bacterial growth; assay type: functional
Cytochrome P450 3A4 [7] = target: T1, Cytochrome P450 3A4 (Homo sapiens, UniProt P08684); assay: Inhibition of CYP3A4 (unknown origin) using testosterone as substrate; assay type: ADME
T1 sequence (P08684 whole entry): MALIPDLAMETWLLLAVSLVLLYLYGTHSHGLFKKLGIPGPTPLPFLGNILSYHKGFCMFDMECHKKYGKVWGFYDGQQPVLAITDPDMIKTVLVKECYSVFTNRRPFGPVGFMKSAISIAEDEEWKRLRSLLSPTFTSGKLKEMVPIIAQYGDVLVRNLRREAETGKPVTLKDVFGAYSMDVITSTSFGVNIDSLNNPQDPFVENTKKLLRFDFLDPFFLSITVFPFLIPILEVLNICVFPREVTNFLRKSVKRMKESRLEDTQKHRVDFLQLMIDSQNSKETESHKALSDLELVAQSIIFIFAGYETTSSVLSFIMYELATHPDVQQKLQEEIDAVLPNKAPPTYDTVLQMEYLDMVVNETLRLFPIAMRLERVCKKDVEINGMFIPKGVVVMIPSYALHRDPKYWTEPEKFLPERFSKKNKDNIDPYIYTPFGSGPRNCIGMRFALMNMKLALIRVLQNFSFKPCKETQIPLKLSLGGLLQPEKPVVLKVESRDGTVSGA

Cytochrome P450 3A4 [8] = target: T1, Cytochrome P450 3A4; assay: Inhibition of CYP3A4 (unknown origin); assay type: ADME
Cytochrome P450 1A2 = target: T2, Cytochrome P450 1A2 (Homo sapiens, UniProt P05177); assay: Inhibition of CYP1A2 (unknown origin); assay type: ADME
T2 sequence (P05177 whole entry): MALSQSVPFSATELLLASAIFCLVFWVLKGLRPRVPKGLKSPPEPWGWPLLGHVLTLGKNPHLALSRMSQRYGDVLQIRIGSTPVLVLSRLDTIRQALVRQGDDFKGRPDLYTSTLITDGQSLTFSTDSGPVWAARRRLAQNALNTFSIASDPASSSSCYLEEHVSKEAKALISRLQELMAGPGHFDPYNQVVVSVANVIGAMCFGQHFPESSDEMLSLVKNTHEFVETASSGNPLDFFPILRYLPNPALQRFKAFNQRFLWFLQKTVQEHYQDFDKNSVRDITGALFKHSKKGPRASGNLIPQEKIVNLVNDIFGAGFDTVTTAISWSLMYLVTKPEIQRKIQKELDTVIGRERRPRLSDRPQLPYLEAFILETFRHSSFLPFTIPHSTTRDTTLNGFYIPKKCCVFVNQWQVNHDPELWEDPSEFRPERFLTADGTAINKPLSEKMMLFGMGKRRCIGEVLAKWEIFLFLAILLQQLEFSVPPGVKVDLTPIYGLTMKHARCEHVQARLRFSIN

[9] = system: Mycobacterium tuberculosis; assay: Antitubercular activity against Mycobacterium tuberculosis H37Rv assessed as inhibition of bacterial growth; assay type: functional
Cytochrome P450 2C8 = target: T3, Cytochrome P450 2C8 (Homo sapiens, UniProt P10632); assay: Inhibition of CYP2C8 (unknown origin); assay type: ADME
T3 sequence (P10632 whole entry): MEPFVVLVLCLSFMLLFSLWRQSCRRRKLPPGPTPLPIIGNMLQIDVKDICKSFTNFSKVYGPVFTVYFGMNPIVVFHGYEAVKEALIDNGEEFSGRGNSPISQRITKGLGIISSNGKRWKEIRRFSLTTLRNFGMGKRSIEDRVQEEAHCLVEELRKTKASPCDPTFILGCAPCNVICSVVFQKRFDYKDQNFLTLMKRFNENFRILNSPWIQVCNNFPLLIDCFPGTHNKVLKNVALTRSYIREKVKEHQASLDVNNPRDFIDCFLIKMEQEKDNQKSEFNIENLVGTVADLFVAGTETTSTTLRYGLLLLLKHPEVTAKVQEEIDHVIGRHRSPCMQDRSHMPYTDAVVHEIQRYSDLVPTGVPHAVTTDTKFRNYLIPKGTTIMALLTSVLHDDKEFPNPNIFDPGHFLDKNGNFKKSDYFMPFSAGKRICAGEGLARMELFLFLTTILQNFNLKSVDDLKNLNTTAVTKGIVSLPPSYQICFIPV

Cytochrome P450 2C9 = Cytochrome P450 2C9 (Homo sapiens, UniProt P11712); assay: Inhibition of CYP2C9 (unknown origin); assay type: ADME
Cytochrome P450 2C9, sequence (P11712 whole entry): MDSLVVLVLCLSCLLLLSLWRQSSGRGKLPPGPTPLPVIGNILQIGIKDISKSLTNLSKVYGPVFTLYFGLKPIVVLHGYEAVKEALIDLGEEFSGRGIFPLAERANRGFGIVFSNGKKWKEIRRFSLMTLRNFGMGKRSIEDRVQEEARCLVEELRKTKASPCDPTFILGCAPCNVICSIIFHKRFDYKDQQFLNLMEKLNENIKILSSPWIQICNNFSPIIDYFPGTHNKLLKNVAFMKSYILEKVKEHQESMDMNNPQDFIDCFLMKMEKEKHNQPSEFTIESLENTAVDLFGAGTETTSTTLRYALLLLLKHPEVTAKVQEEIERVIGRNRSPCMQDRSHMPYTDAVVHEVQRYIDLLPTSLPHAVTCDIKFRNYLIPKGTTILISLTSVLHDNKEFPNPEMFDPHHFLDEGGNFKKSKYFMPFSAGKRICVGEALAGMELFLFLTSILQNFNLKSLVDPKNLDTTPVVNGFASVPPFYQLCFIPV

Cytochrome P450 2D6 = Cytochrome P450 2D6 (Homo sapiens, UniProt P10635); assay: Inhibition of CYP2D6 (unknown origin); assay type: ADME
Cytochrome P450 2D6, sequence (P10635 whole entry): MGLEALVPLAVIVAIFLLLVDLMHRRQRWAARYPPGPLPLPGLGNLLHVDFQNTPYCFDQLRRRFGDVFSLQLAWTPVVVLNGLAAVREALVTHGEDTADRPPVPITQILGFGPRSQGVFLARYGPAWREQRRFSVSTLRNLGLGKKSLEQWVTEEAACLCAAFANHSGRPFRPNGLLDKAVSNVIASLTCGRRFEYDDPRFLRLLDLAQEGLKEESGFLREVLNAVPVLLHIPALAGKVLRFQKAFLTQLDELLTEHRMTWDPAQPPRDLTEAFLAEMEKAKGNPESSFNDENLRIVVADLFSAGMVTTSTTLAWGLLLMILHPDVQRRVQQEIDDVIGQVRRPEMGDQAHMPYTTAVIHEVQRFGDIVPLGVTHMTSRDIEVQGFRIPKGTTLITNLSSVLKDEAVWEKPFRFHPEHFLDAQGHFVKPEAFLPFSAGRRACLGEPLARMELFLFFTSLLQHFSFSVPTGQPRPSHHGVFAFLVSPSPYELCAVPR

[10] = Oral bioavailability in mouse; assay type: ADME, organism-based; details: in vivo
[11] = Clearance in mouse; assay type: ADME, organism-based; details: in vivo
[12] = Cytotoxicity against human primary hepatocytes in presence of serum; assay type: toxicity, cell-based, Hepatocyte
[13] = target: Inosine-5'-monophosphate dehydrogenase (Mycobacterium tuberculosis (strain ATCC 25618 / H37Rv), UniProt P9WKI7); assay: Inhibition of Mycobacterium tuberculosis GuaB
Inosine-5'-monophosphate dehydrogenase, sequence (P9WKI7 whole entry): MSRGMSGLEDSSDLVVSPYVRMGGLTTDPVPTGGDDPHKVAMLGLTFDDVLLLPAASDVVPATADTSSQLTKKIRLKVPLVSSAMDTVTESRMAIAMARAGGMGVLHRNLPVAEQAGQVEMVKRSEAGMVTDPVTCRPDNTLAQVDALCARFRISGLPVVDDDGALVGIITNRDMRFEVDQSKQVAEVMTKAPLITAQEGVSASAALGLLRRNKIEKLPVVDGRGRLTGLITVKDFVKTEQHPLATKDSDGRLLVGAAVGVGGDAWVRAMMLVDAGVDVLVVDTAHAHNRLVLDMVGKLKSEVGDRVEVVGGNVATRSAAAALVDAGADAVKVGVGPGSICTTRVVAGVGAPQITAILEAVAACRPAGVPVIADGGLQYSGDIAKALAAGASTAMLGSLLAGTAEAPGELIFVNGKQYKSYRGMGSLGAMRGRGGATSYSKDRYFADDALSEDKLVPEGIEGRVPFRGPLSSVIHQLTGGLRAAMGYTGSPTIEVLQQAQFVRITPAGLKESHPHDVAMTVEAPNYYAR

IMPDH = assay: Inhibition of human IMPDH; assay type: toxicity
[14] = Cytotoxicity against human primary hepatocytes in absence of serum; assay type: toxicity, cell-based, Hepatocyte
hERG = hERG (Homo sapiens, UniProt Q12809); assay: Inhibition of hERG at 10 uM relative to control; assay type: toxicity
hERG, sequence (Q12809 whole entry): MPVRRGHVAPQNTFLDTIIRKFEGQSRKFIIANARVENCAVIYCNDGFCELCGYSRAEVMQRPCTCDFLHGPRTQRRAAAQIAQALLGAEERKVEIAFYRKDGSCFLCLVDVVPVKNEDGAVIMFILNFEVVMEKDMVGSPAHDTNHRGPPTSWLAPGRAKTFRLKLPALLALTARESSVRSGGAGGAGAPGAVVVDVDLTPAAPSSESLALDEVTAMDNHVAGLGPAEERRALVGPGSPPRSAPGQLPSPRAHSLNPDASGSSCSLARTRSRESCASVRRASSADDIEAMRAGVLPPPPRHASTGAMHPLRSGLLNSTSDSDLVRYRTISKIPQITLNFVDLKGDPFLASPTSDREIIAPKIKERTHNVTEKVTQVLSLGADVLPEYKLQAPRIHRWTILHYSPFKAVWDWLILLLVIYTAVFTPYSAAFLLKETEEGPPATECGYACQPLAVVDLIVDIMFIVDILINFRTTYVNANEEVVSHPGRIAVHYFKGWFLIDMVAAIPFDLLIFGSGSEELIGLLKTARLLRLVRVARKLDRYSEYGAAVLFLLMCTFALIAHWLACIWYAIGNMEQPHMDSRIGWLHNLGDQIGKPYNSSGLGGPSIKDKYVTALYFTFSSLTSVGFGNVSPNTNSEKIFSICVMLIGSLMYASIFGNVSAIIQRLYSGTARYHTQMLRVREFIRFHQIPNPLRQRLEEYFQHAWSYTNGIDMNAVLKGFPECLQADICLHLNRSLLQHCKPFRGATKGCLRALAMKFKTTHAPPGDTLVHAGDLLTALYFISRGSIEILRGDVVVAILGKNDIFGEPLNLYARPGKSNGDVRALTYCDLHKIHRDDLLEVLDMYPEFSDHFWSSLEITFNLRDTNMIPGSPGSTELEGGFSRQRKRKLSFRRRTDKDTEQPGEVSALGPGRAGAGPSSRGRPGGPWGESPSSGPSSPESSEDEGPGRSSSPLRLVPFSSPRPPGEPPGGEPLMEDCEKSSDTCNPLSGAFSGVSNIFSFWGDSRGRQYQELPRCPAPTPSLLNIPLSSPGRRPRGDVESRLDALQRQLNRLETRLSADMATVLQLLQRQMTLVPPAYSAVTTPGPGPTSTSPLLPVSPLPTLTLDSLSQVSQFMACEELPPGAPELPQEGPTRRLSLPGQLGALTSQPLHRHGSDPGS

Compound	MIC [3] [µM]	logD [4]	CLhep predicted [5] [mL/min/kg]	IC50 (Cytochrome P450 3A4 [7]) [µM]	further results
O=C(C1CCCCC1)N1CCN(S(=O)(=O)c2cccc3cnccc23)CC1					MIC [1]: 2 µM (≈ 0.775 µg/mL)
C/C(=N/O)c1cccc(C(C)(C)NC(=O)Nc2ccc(Cl)c(C(=O)N(C)C)c2)c1					MIC [2]: 16 µM (≈ 6.67 µg/mL)
C[C@@H](Oc1ccc2c(=O)cc3n(c2c1)CCOC3)c1cncc(-n2ccc(C#N)n2)c1	0.18 (≈ 0.0744 µg/mL)	1.7	11		
Cc1n[nH]c(C)c1S(=O)(=O)Nc1ccc2c[nH]nc2c1					MIC [6]: 2 µM (≈ 0.583 µg/mL)
CC(Oc1ccc2c(=O)cc3n(c2c1)CCOC3)c1cncc(-c2nc(Cl)c[nH]2)c1 (racemic)	0.12 (≈ 0.0507 µg/mL)	2.2	13	3.7	
C[C@@H](Oc1ccc2ncc3c(c2c1)CCOC3)c1cncc(-c2nc(Cl)c[nH]2)c1	< 0.003		19	0.57	IC50 (Cytochrome P450 3A4 [8]): < 10 µM; IC50 (Cytochrome P450 1A2): < 10 µM; MIC [9]: 0.039 µM (≈ 0.0159 µg/mL); IC50 (Cytochrome P450 2C8): < 10 µM; IC50 (Cytochrome P450 2C9): < 10 µM; IC50 (Cytochrome P450 2D6): < 10 µM
C[C@@H](Oc1ccc2c(=O)cc3n(c2c1)CCOC3)c1cncc(-n2ccc(C(F)(F)F)n2)c1	0.29 (≈ 0.132 µg/mL)	3.1	18	> 10	
C[C@@H](Oc1ccc2c(=O)cc3n(c2c1)CCOC3)c1cncc(-c2nc(C#N)c[nH]2)c1	0.39 (≈ 0.161 µg/mL)	2.1	5.5	> 10	
C[C@@H](Oc1ccc2c(=O)cc3n(c2c1)CCOC3)c1cc(-n2ccc(C(F)(F)F)n2)cnn1	0.58 (≈ 0.265 µg/mL)	2.1	7	> 10	
C[C@@H](Oc1ccc2c(=O)cc3n(c2c1)CCOC3)c1cc(-n2ccc(Cl)n2)cnn1	0.26 (≈ 0.11 µg/mL)	2.3	5.3	> 10	IC50 (Cytochrome P450 3A4 [8]): > 10 µM; IC50 (Cytochrome P450 1A2): > 10 µM; bioavailability [10]: 5.2%; clearance [11]: 35 mL/min/kg; IC50 (Cytochrome P450 2C8): > 10 µM; IC50 [12]: > 100 µM; IC50 [13]: 0.0017 µM; IC50 (IMPDH): > 50 µM; IC50 (Cytochrome P450 2D6): > 10 µM; IC50 [14]: > 100 µM; inhibition at 10 µM (hERG): 28%
C[C@@H](Oc1ccc2ncc(CO)cc2c1)c1cncc(-c2nc(Cl)c[nH]2)c1	0.007 (≈ 0.00267 µg/mL)		12	2.1	
C[C@@H](Oc1ccc2c(=O)cc3n(c2c1)CCOC3)c1cncc(-n2ccc(Cl)n2)c1	0.091 (≈ 0.0385 µg/mL)	2.8	16	> 10	
C[C@@H](Oc1ccc(-c2ccn[nH]2)cc1)c1cncc(-c2nc(Cl)c[nH]2)c1	0.11 (≈ 0.0402 µg/mL)		12	0.24	
C[C@@H](Oc1cccc(-c2ccn[nH]2)c1)c1cncc(-c2nc(Cl)c[nH]2)c1	3.1 (≈ 1.13 µg/mL)		16	0.32	
C[C@@H](Oc1ccc2c(=O)cc3n(c2c1)CCOC3)c1cncc(-c2nc(C(F)(F)F)c[nH]2)c1	0.099 (≈ 0.0452 µg/mL)	3	16	4.3	
C[C@@H](Oc1cc(-c2ccn[nH]2)cc(N2CCOCC2)c1)c1cncc(-c2nc(Cl)c[nH]2)c1	0.18 (≈ 0.0812 µg/mL)		16		
C[C@@H](Oc1ccc2c(=O)cc3n(c2c1)CCOC3)c1cc(-n2ccc(OC(F)F)n2)cnn1	0.29 (≈ 0.132 µg/mL)	1.6	< 3.9	> 10	inhibition at 10 µM (hERG): 70%
C[C@H](Nc1ccc2ncc3c(c2c1)CCOC3)C(=O)Nc1ccc(Cl)nc1	0.035 (≈ 0.0134 µg/mL)		16		MIC [9]: 0.058 µM (≈ 0.0222 µg/mL); clearance [11]: 132 mL/min/kg
